Test system: burn-induced SIRS patients
Assay: Burn-Induced SIRS trial survival analysis, hydrocortisone vs placebo, by patient subtype classifier
Type: in vivo, human
Design: lower mortality in the hydrocortisone group when compared to the placebo group / Mortality reduction / Mortality rate: concentration or dose not given beside the values
Conditions: for Alive / Dead / Mortality rate / Survival rate: Hydro arm; for Alive / Dead / Mortality rate / Survival rate / Mortality Reduction Group / Mortality reduction: day 28; for Mortality Reduction Group: Hydro vs Placebo
Excerpt: The test expression data from each trial were normalized by the platform normalization matrix described above^13 so that the test data were more consistent with the training data. The classifiers (e.g., the Full Model, the SS Model, the S Model, and the P Model) were then applied to the normalized data such that the patients were classified into A, B, and C subtypes. […] Therefore, each sample in the target samples was normalized independently with the normalization matrix of the sample array platform.
Survival and mortality rates were calculated at day 28 because survival and mortality labels at other time points were not available. […] Binomial and Chi-squared with continuity correction tests were used to test for the significance of these differences.
The chi-squared p-value was calculated with continuity correction when computed for 2-by-2 tables.

[1] = Full Model, Total (all subtypes)

C[C@]12CCC(=O)C=C1CC[C@@H]1[C@@H]2[C@@H](O)C[C@@]2(C)[C@H]1CC[C@]2(O)C(=O)CO [Hydro, hydrocortisone]
Alive [1]: 9
Dead [1]: 6
Mortality rate [1]: 40.0%
Survival rate [1]: 60.0%
Mortality Reduction Group [1]: Placebo
Mortality reduction (Full Model, Total (all subtypes), reduction group Placebo): 66.7%
Alive (Full Model, subtype A): 2
Dead (Full Model, subtype A): 1
Survival rate (Full Model, subtype A): 66.7%
Mortality Reduction Group (Full Model, subtype A): Placebo
Mortality reduction (Full Model, subtype A, reduction group Placebo): 100.0%
Alive (Full Model, subtype B): 6
Dead (Full Model, subtype B): 1
Mortality rate (Full Model, subtype B): 14.3%
Survival rate (Full Model, subtype B): 85.7%
Mortality Reduction Group (Full Model, subtype B): Hydro
Mortality reduction (Full Model, subtype B, reduction group Hydro): 64.3%
Alive (Full Model, subtype C): 1
Dead (Full Model, subtype C): 4
Mortality rate (Full Model, subtype C): 80.0%
Survival rate (Full Model, subtype C): 20.0%
Mortality Reduction Group (Full Model, subtype C): Placebo
Mortality reduction (Full Model, subtype C, reduction group Placebo): 100.0%
Alive (Full Model, subtypes CA): 3
Dead (Full Model, subtypes CA): 5
Mortality rate (Full Model, subtypes CA): 62.5%
Survival rate (Full Model, subtypes CA): 37.5%
Mortality Reduction Group (Full Model, subtypes CA): Placebo
Mortality reduction (Full Model, subtypes CA, reduction group Placebo): 100.0%
Alive (P Model, Total (all subtypes)): 9
Dead (P Model, Total (all subtypes)): 6
Mortality rate (P Model, Total (all subtypes)): 40.0%
Survival rate (P Model, Total (all subtypes)): 60.0%
Mortality Reduction Group (P Model, Total (all subtypes)): Placebo
Mortality reduction (P Model, Total (all subtypes), reduction group Placebo): 66.7%
Alive (P Model, subtype A): 4
Dead (P Model, subtype A): 1
Mortality rate (P Model, subtype A): 20.0%
Survival rate (P Model, subtype A): 80.0%
Mortality Reduction Group (P Model, subtype A): Placebo
Mortality reduction (P Model, subtype A, reduction group Placebo): 100.0%
Alive (P Model, subtype B): 5
Dead (P Model, subtype B): 1
Survival rate (P Model, subtype B): 83.3%
Mortality Reduction Group (P Model, subtype B): Hydro
Mortality reduction (P Model, subtype B, reduction group Hydro): 50.0%
Alive (P Model, subtype C): 0
Dead (P Model, subtype C): 4
Mortality rate (P Model, subtype C): 100.0%
Survival rate (P Model, subtype C): 0.0%
Mortality Reduction Group (P Model, subtype C): Placebo
Mortality reduction (P Model, subtype C, reduction group Placebo): 100.0%
Alive (P Model, subtypes CA): 4
Dead (P Model, subtypes CA): 5
Mortality rate (P Model, subtypes CA): 55.6%
Survival rate (P Model, subtypes CA): 44.4%
Mortality Reduction Group (P Model, subtypes CA): Placebo
Mortality reduction (P Model, subtypes CA, reduction group Placebo): 100.0%
Alive (S Model, Total (all subtypes)): 9
Dead (S Model, Total (all subtypes)): 6
Mortality rate (S Model, Total (all subtypes)): 40.0%
Survival rate (S Model, Total (all subtypes)): 60.0%
Mortality Reduction Group (S Model, Total (all subtypes)): Placebo
Mortality reduction (S Model, Total (all subtypes), reduction group Placebo): 66.7%
Alive (S Model, subtype A): 3
Dead (S Model, subtype A): 2
Mortality rate (S Model, subtype A): 40.0%
Survival rate (S Model, subtype A): 60.0%
Mortality Reduction Group (S Model, subtype A): Placebo
Mortality reduction (S Model, subtype A, reduction group Placebo): 58.3%
Alive (S Model, subtype B): 6
Dead (S Model, subtype B): 1
Mortality rate (S Model, subtype B): 14.3%
Survival rate (S Model, subtype B): 85.7%
Mortality Reduction Group (S Model, subtype B): Hydro
Mortality reduction (S Model, subtype B, reduction group Hydro): 28.6%
Alive (S Model, subtype C): 0
Dead (S Model, subtype C): 3
Mortality rate (S Model, subtype C): 100.0%
Survival rate (S Model, subtype C): 0.0%
Mortality Reduction Group (S Model, subtype C): Placebo
Mortality reduction (S Model, subtype C, reduction group Placebo): 100.0%
Alive (S Model, subtypes CA): 3
Dead (S Model, subtypes CA): 5
Mortality rate (S Model, subtypes CA): 62.5%
Survival rate (S Model, subtypes CA): 37.5%
Mortality Reduction Group (S Model, subtypes CA): Placebo
Mortality reduction (S Model, subtypes CA, reduction group Placebo): 84.0%
lower mortality in the placebo group when compared to the hydrocortisone therapy group (SIRS patients, 28-day, C subtype, Full Model): 100%
lower mortality in the placebo group when compared to the hydrocortisone therapy group (SIRS patients, 28-day, C subtype, P Model): 100%
lower mortality in the placebo group when compared to the hydrocortisone therapy group (SIRS patients, 28-day, C subtype, S Model): 100%
lower mortality in the placebo group when compared to the hydrocortisone therapy group (SIRS patients, 28-day, C subtype, SS Model): 65%
lower mortality in the placebo group when compared to the hydrocortisone therapy group (SIRS patients, 28-day, subtype A, Full, S, and P Models): 100%
lower mortality in the hydrocortisone group when compared to the placebo group (SIRS patients, 28-day, subtype B, S Model): 28.6%
Alive (SS Model, Total (all subtypes)): 9
Dead (SS Model, Total (all subtypes)): 6
Mortality rate (SS Model, Total (all subtypes)): 40.0%
Survival rate (SS Model, Total (all subtypes)): 60.0%
Mortality Reduction Group (SS Model, Total (all subtypes)): Placebo
Mortality reduction (SS Model, Total (all subtypes), reduction group Placebo): 66.7%
Alive (SS Model, subtype A): 4
Dead (SS Model, subtype A): 2
Survival rate (SS Model, subtype A): 66.7%
Mortality Reduction Group (SS Model, subtype A): Placebo
Mortality reduction (SS Model, subtype A, reduction group Placebo): 40.0%
Alive (SS Model, subtype B): 2
Dead (SS Model, subtype B): 0
Mortality rate (SS Model, subtype B): 0.0%
Survival rate (SS Model, subtype B): 100.0%
Mortality Reduction Group (SS Model, subtype B): Placebo
Alive (SS Model, subtype C): 3
Dead (SS Model, subtype C): 4
Mortality rate (SS Model, subtype C): 57.1%
Survival rate (SS Model, subtype C): 42.9%
Mortality Reduction Group (SS Model, subtype C): Placebo
Mortality reduction (SS Model, subtype C, reduction group Placebo): 65.0%
Alive (SS Model, subtypes CA): 7
Dead (SS Model, subtypes CA): 6
Mortality rate (SS Model, subtypes CA): 46.2%
Survival rate (SS Model, subtypes CA): 53.8%
Mortality Reduction Group (SS Model, subtypes CA): Placebo
Mortality reduction (SS Model, subtypes CA, reduction group Placebo): 56.7%

From patent US20220351806A1, “Biomarker Panels for Guiding Dysregulated Host Response Therapy” (Endpoint Health Inc., priority 2019, published 2022)
